Consider one compound from patent US11446269B2, “Methods of reducing or preventing oxidation of small dense LDL or membrane polyunsaturated fatty acids” (Amarin Pharmaceuticals Ireland Limited, priority 2014, dated 2022).

The test deals with HUVECs. Put plainly: NO and ONOO^− release from HUVECs treated concomitantly with agent-treated oxLDL (Example 11, objective 2). The class given is cell-based, human. The note with it: oxLDL 11 mg/dL treated 30 min with agents 10 μM, 60 min exposure, calcium ionophore; in nM. Here is the method: Human umbilical vein endothelial cells (HUVECs) were obtained from healthy, female donors and isolated into primary, proliferating cell cultures (Clonetics, San Diego, Calif.). The cells were incubated in 95% air/5% CO2 at 37° C. and passaged by an enzymatic (trypsin) procedure. The confluent cells (4 to 5×10^5 cells/35 mm dish) were plated with minimum essential medium containing 3 mM L-arginine and 0.1 mM BH4 [(6R)-5,6,7,8-tetrahydrobiopterin]. Before experimental use, the cells (from second or third passage) were rinsed twice with Tyrode-HEPES buffer with 1.8 mM CaCl2.
Concurrent measurements of NO and ONOO^− were performed with tandem electrochemical nanosensors combined into one working unit with a total diameter of 200-400 nm. Their design is based on previously developed and chemically modified carbon-fiber technology. […]
The amperometric method (with a response time of 0.1 ms) provides a quantitative signal (current) that is directly proportional to changes (from basal levels) in NO or ONOO^− concentration. […] Basal NO or ONOO^− levels were measured by differential pulse voltammetry in separate experiments.
All measurements of NO and ONOO^− were performed on intact endothelial cells. […] Cells will then be treated with calcium ionophore (to maximally stimulate the release of nitrous molecules) and monitored continuously for changes in amperometric current. […]

On to `CC/C=C\C/C=C\C/C=C\C/C=C\C/C=C\C/C=C\CCC(=O)O` [DHA, docosahexaenoic acid], for which the “ONOO^− release” value is listed as 240 ± 27^.
